Molecules are shown by their SMILES.

Holding throughout (assay type): binding, mouse
One experiment relates to anti-PS-I mAbs. Briefly: STD-NMR competition experiment. As to conditions: 1 added to 200 μM, saturation transfer time 2 s. From the text:
Figure 6 Epitope mapping of glycan–mAb interactions by STD-NMR. (a,b) Recognition of disaccharide 3 by mAb 10A1 shown as Lewis structure and three-dimensional model calculated with Glycam[70]. Colours indicate percentages of STD effects. (c) Recognition patterns of 3 by three mAbs. STD spectra were acquired at 2 s saturation transfer time in the presence of mAbs 2C5, 10A1 and 10D6 (from top to bottom). (d) Competition of trisaccharide 2 by pentasaccharide 1.
Owing to the slow off-rates of 1 with all three mAbs, we were unable to determine any STD effects for the pentasaccharide. […] This indicated identical binding sites and confirmed high-affinity binding of 1.
Before the STD-NMR studies, proton resonances of oligosaccharides 1–3 were assigned using standard one-dimensional proton spectra, as well as 2D total correlation spectroscopy (2D-TOCSY), correlation spectroscopy, ^1H–^13C heteronuclear single quantum coherence and ^1H–^13C heteronuclear multiple bond correlation spectra at concentrations varying between 5 and 20 mM in D2O. All NMR studies were measured at 298 K on a Varian PremiumCOMPACT 600 MHz spectrometer equipped with a OneNMR probe. […] A total of 2,048 scans were recorded. […] STD build-up curves for mAb 10A1 were recorded at saturation transfer times of 0.5, 1, 2, 4 and 6 s, adjusting the prescan delay accordingly. […]

A further experiment deals with mAb 10A1. Briefly: Isothermal titration calorimetry (ITC). On the procedure:
(§1) Figure 7 IM and thermodynamic analysis of glycan–mAb interactions and conformation of 1. (a) IM analysis. The heat maps represent on- and off-rates of mAb 2C5 to 1 (upper) and 3 (lower). (b) Thermograms acquired using 7 μM of mAb 2C5 and titrating 250 μM of 1 (left) or 3 mM of 3 (right) at 25 °C. Thermodynamic parameters were inferred by nonlinear least-square fits of the data points. (c) Summary of thermodynamic parameters for 1 and 3 interacting with mAbs 2C5 and 10A1. Bars represent mean±s.e.m. of two independent measurements. See Supplementary Fig. 6 for details. (d) One-dimensional proton NMR spectrum, and 2D zTOCSY and NOE spectroscopy (NOESY) NMR spectra of 1 showing the coupled protons to the anomeric protons of the five residues with numbering according to the structure shown in e. Blue circles mark cross-peaks that appear in the NOESY spectrum, whereas not showing a corresponding peak in the zTOCSY. These peaks were marked as inter-residue NOEs and labelled by residue number and proton name. […]
(§2) Assuming that 1 had more interactions with the binding pockets, association with 1 would liberate more water molecules during complex formation than 3, thereby producing a more favourable entropy. To investigate this, thermodynamic parameters of mAb interactions with 1 and 3 were measured by ITC (Fig. 7b). […]
A general note: ITC needs no label: the signal is the heat of the interaction.

A further experiment concerns mAb 2C5. Briefly: Isothermal titration calorimetry (ITC). On the procedure:
as §1, §2

As to `C[C@@H]1O[C@@H](O[C@@H]2[C@@H](O)[C@H](O[C@H]3[C@H](O[C@@H]4O[C@@H](C)[C@H](O)[C@@H](O)[C@H]4O)[C@@H](O)[C@@H](O[C@H]4[C@@H](OCCCCCN)O[C@H](CO)[C@@H](O)[C@@H]4O)O[C@@H]3CO)O[C@H](CO)[C@H]2O)[C@H](O)[C@H](O)[C@H]1O` [Compound 1], the “Competition of trisaccharide 2 STD effects (in words)” value in the experiment with anti-PS-I mAbs is given as “completely diminished any STD effects imposed by 2”. Besides, the binding stoichiometry in the experiment with mAb 10A1 is 2.6; with mAb 2C5 it was 2.2.

Values taken from publication PMC4838876, “Multivalent display of minimal Clostridium difficile glycan epitopes mimics antigenic properties of larger glycans” (Nature Communications, 2016).
